Some test systems named below: NCI/ADR-RES ovarian; SNB-75 CNS; NCI-H522 lung; SK-MEL-28 melanoma; OVCAR-3 ovarian; COLO 205 colon; BT-549 breast; OVCAR-8 ovarian; SW-620 colon; HL-60(TB) leukemia.
Common to all, as to test: NCI anticancer screen, dose series, 48 h

These results are taken from PubChem BioAssay (NCI).

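Tested at 5 concentrations; 48 h exposure; 96-well plates; endpoints linearly interpolated, else capped at highest concentration. GI50 is the concentration that inhibits growth by half. The concentration for full growth arrest is given as TGI.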

Take `COc1cc(-n2cc(-c3ccc(F)cc3)nc2SCc2ccccc2)cc(OC)c1OC`: the GI50 with NCI/ADR-RES ovarian was greater than 100 µM; in the assay with SNB-75 CNS, greater than 100 µM; with NCI-H522 lung, 89.8 µM; in the assay on SK-MEL-28 melanoma it was greater than 100 µM; in the assay with OVCAR-3 ovarian it was greater than 100 µM; in the assay with COLO 205 colon, greater than 100 µM. In addition, the GI50 with BT-549 breast, in the assay with OVCAR-8 ovarian, with SW-620 colon and in the assay on HL-60(TB) leukemia was greater than 100 µM each time. Also, the TGI in the assay with NCI/ADR-RES ovarian, in the assay with SNB-75 CNS, in the assay on NCI-H522 lung, in the assay on SK-MEL-28 melanoma, in the assay with OVCAR-3 ovarian and in the assay with COLO 205 colon was greater than 100 µM throughout. Also, the TGI in the assay on BT-549 breast, with OVCAR-8 ovarian, with SW-620 colon and with HL-60(TB) leukemia was greater than 100 µM each time.
For the molecule `COC(=O)C1=C(C)NC(C)=C(C(=O)OC)C1/C=C(\Cl)c1ccc(Cl)c(Cl)c1`, the GI50 in the assay with NCI/ADR-RES ovarian is 16.4 µM; in the assay on SNB-75 CNS, 8.25 µM; with NCI-H522 lung, 16.6 µM; in the assay with SK-MEL-28 melanoma, 13.2 µM; in the assay on OVCAR-3 ovarian it was 12.8 µM; in the assay on COLO 205 colon it was 17.9 µM. The GI50 in the assay with BT-549 breast was 16.6 µM; with OVCAR-8 ovarian, 36.1 µM; with SW-620 colon it was 12.2 µM; with HL-60(TB) leukemia, 11.9 µM. For the same molecule, the TGI in the assay with NCI/ADR-RES ovarian was 30.8 µM; in the assay on SNB-75 CNS, 22.9 µM; in the assay with NCI-H522 lung, 32.4 µM; in the assay with SK-MEL-28 melanoma, 27.7 µM; with OVCAR-3 ovarian, 26.3 µM; in the assay with COLO 205 colon, 43.2 µM. Moreover, the TGI with BT-549 breast is 32.2 µM; in the assay on OVCAR-8 ovarian, greater than 100 µM; in the assay on SW-620 colon it was 28.7 µM; with HL-60(TB) leukemia, 38.4 µM.
As to `Cc1cc2cc3cc(C)c(N(C)C)cc3[n+](C)c2cc1N(C)C`, the GI50 was 22.4 µM with NCI/ADR-RES ovarian; 3.7 µM in the assay with SNB-75 CNS; 5.35 µM in the assay with NCI-H522 lung; 2.64 µM in the assay on SK-MEL-28 melanoma; 3.13 µM in the assay on OVCAR-3 ovarian; 2.51 µM in the assay on COLO 205 colon. In addition, the GI50 is 2.55 µM in the assay on BT-549 breast, 2.72 µM in the assay with OVCAR-8 ovarian, 2.92 µM in the assay with SW-620 colon and 3.22 µM in the assay on HL-60(TB) leukemia. For the same molecule, the TGI is greater than 100 µM in the assay with NCI/ADR-RES ovarian; 31.4 µM in the assay on SNB-75 CNS; 36.1 µM with NCI-H522 lung; 8.53 µM with SK-MEL-28 melanoma; 14 µM with OVCAR-3 ovarian; 17.5 µM in the assay on COLO 205 colon. Also, the TGI in the assay on BT-549 breast was 9.62 µM; in the assay with OVCAR-8 ovarian, 14.7 µM; in the assay on SW-620 colon, 18 µM; with HL-60(TB) leukemia it was greater than 100 µM.
Consider `Cn1cc(C2=C(c3cn(CCO)c4ccccc34)C(=O)NC2=O)c2ccccc21`, for which the GI50 is 5.6 µM in the assay with NCI/ADR-RES ovarian; 0.634 µM in the assay with SNB-75 CNS; 1.64 µM with NCI-H522 lung; 3.76 µM with SK-MEL-28 melanoma; 1.78 µM in the assay on OVCAR-3 ovarian; 1.25 µM in the assay with COLO 205 colon. Moreover, the GI50 in the assay on BT-549 breast is 3.14 µM; in the assay on OVCAR-8 ovarian, 5.48 µM; in the assay on SW-620 colon, 1.21 µM; in the assay on HL-60(TB) leukemia, 1.12 µM. Further, the TGI is greater than 22 µM in the assay with NCI/ADR-RES ovarian; 6.5 µM in the assay on SNB-75 CNS; 10.8 µM in the assay on NCI-H522 lung; 20.2 µM in the assay with SK-MEL-28 melanoma; 14 µM with OVCAR-3 ovarian; 5.89 µM in the assay with COLO 205 colon. The TGI is 11.9 µM with BT-549 breast, greater than 21.9 µM in the assay with OVCAR-8 ovarian, greater than 25 µM in the assay with SW-620 colon and 6.36 µM in the assay with HL-60(TB) leukemia.
For `COc1cc2c(cc1OCCCCCOc1cc3c(cc1OC)C(=O)N1CC(F)C[C@H]1C=N3)N=C[C@@H]1CC(F)CN1C2=O` (stereo not given in full), the GI50 with NCI/ADR-RES ovarian was 0.553 µM; with SNB-75 CNS, 0.0488 µM; in the assay on NCI-H522 lung, 0.0372 µM; in the assay with SK-MEL-28 melanoma, 0.424 µM; in the assay on OVCAR-3 ovarian, 0.128 µM; with COLO 205 colon, 0.191 µM. In addition, the GI50 was 0.0939 µM in the assay with BT-549 breast, 0.138 µM with OVCAR-8 ovarian, 0.0701 µM in the assay on SW-620 colon and less than 0.01 µM with HL-60(TB) leukemia. For the same molecule, the TGI with NCI/ADR-RES ovarian was 9.87 µM; in the assay on SNB-75 CNS it was greater than 100 µM; with NCI-H522 lung, 0.204 µM; in the assay on SK-MEL-28 melanoma, 8.45 µM; in the assay with OVCAR-3 ovarian, 0.51 µM; with COLO 205 colon, 0.465 µM. Moreover, the TGI in the assay with BT-549 breast worked out at 0.721 µM; with OVCAR-8 ovarian, 2.06 µM; in the assay with SW-620 colon it was 0.452 µM; in the assay on HL-60(TB) leukemia it was 2.39 µM.
For the molecule `O=[N+]([O-])c1ccccc1N=Nc1c(O)[nH]c2ccc(Br)cc12`, the TGI with NCI/ADR-RES ovarian was 40.6 µM; with SNB-75 CNS, 36.1 µM; with NCI-H522 lung, greater than 34.8 µM; in the assay on SK-MEL-28 melanoma, greater than 61.9 µM; in the assay with OVCAR-3 ovarian it was 35.4 µM; in the assay on COLO 205 colon, 33.9 µM. Moreover, the TGI in the assay with BT-549 breast was greater than 47.3 µM; in the assay with OVCAR-8 ovarian, 44 µM; with SW-620 colon, greater than 62.4 µM; in the assay on HL-60(TB) leukemia, greater than 68.8 µM.
In the case of `Clc1ccc(/C=C/c2cc(N3CCOCC3)c3cc(Cl)c(Cl)cc3n2)cc1`, the GI50 is greater than 100 µM in the assay on NCI/ADR-RES ovarian; greater than 100 µM with SNB-75 CNS; 1.86 µM in the assay on NCI-H522 lung; greater than 100 µM in the assay on SK-MEL-28 melanoma; 3.81 µM in the assay on OVCAR-3 ovarian; greater than 100 µM in the assay on COLO 205 colon. In addition, the GI50 is 0.706 µM with BT-549 breast, greater than 100 µM in the assay on OVCAR-8 ovarian, greater than 100 µM in the assay on SW-620 colon and 0.339 µM in the assay with HL-60(TB) leukemia. The TGI in the assay on NCI/ADR-RES ovarian, in the assay with SNB-75 CNS, in the assay with NCI-H522 lung, in the assay on SK-MEL-28 melanoma, in the assay on OVCAR-3 ovarian and in the assay on COLO 205 colon was greater than 100 µM in each case. Moreover, the TGI was greater than 40.2 µM in the assay with BT-549 breast, greater than 100 µM in the assay with OVCAR-8 ovarian, greater than 100 µM with SW-620 colon and greater than 100 µM in the assay on HL-60(TB) leukemia.
Regarding `Cn1cc(C2=C(c3cccc(N)c3)C(=O)NC2=O)c2ccccc21`, the GI50 in the assay with NCI/ADR-RES ovarian is greater than 19.7 µM; with SNB-75 CNS, 0.0779 µM; in the assay with NCI-H522 lung it was 15.5 µM; with SK-MEL-28 melanoma, greater than 25 µM; in the assay on OVCAR-3 ovarian, 5.67 µM; in the assay on COLO 205 colon, 10.8 µM. Also, the GI50 in the assay with BT-549 breast is greater than 19.3 µM; in the assay on OVCAR-8 ovarian, 17.4 µM; in the assay with SW-620 colon, 17.8 µM; in the assay on HL-60(TB) leukemia, 11.4 µM. In addition, the TGI with NCI/ADR-RES ovarian, with SNB-75 CNS, in the assay on NCI-H522 lung, with SK-MEL-28 melanoma, in the assay on OVCAR-3 ovarian and in the assay on COLO 205 colon was greater than 25 µM throughout. Besides, the TGI in the assay with BT-549 breast, in the assay on OVCAR-8 ovarian, in the assay with SW-620 colon and with HL-60(TB) leukemia was greater than 25 µM each time.
